Measured values from US12019067B2, “Interferometry based systems to detect small mass changes of an object in a solution” (NantBio, Inc., priority 2020, dated 2024).
pEC50: −log10 of the molar value.

Key:
Assay type in all cases: cell-based, human
[1] = tested on: MM.1R and MM.1S cells; test: Multiple myeloma combinatorial screening of therapeutics by LCI, 96 well plate; conditions: for overall result: response / overall result: titration effect: 3 concentrations per drug, quadruplicate, 96 well plate; for ranking among screened drugs: bortezomib 20 nM and carfilzomib at 50 nM
Method: In this example, 6 therapeutics at 3 different concentrations, were added in quadruplicate to a 96 well plate. Thus, there were 19 different conditions: bortezomib (20, 5, 1.25 nM); carlifomib (50, 10, 2 nM); dexamethasone (300, 100, 33.3 nM); lenalidomide (50, 10, 2 nM); panobinostat (50, 10, 2 nM); pomalidomide (50, 10, 2 nM); and DMSO (300 nM) as a negative control. In clinical practice, the actual drugs/combinations may be provided by the clinician.
In this study, a large number of cells (12,000 total cells) were screened to identify optimal drugs and concentrations. This assay, while performed on MM.1R and MM.1S cells may be performed on any suitable cell type (e.g., patient derived cancer cells from multiple myeloma, breast cancer, lung cancer, etc.). For multiple myeloma cells, a protocol for CD138+ cell enrichment from patient bone marrow is provided in the art.
FIGS. 25B, 25C, and 25D show the results of this assay, in graphical, dot box, and table format respectively, in which multiple “best treatments” were identified using this system.

[2] = tested on: H929 cells; test: Live cell interferometry (LCI) growth of H929 cells with or without bortezomib; conditions: for growth trajectory compared to the control: 96 well plate
Method: A typical assay may include, for a single plate, forming groups of seven wells. A range of concentrations may be used, with each concentration (e.g., a DMSO control, varying therapeutic concentrations of 0.039 nM, 0.156 nM, 0.625 nM, 2.5 nM, 10 nM, and 40 nM) applied to a group of wells. In some embodiments, cells are plated, therapeutic(s) are added, and images are collected every 10-15 minutes for the designated period of time.
For development of screening techniques, H929 cells may be used. H929 cells, which may be grown in serum free conditions, have the morphologic, ultrastructural, biochemical, immunologic, and cytochemical features of plasma cells (see, Gazdar et al., Blood (1986) 67(6): 1542-9). H929 cells, derived from a human patient with multiple myeloma, are commonly used for multiple myeloma testing and are sensitive to a variety of chemotherapeutic drugs.
In this experiment, about 1681 control cells and about 1272 bortezomib treated cells were screened.
A small but statistically significant difference in growth rate was detected at about 4.5 hrs. […] As shown in this graph, the growth trajectories of the control and bortezomib treated cells begin to diverge between 4-5 hours. […] Here, a vertical line indicates a statistically significant point of divergence using LCI techniques between 4-5 hours.
In this experiment, about 1889 control cells and about 1248 bortezomib treated cells were screened. Imaging was initiated after drug addition, every 12 min for 7 hrs. In this study, the normalized growth rate [1/h] of DMSO control cells was 0.0152, while the normalized growth rate [1/h] of 10 nM bortezomib treated cells was 0.0139, for a difference of −8.6% between these two growth rates. As shown by the graph, after about 5 hours, the normalized growth rate of control and 10 nM bortezomib treated cells diverged. Accordingly, under these conditions, efficacy of a drug was determined in about 5 hours.
For this graph, the same plate (as used in FIG. 21C) was imaged (for a total of 24 hours) after drug addition. An image was taken every 12 minutes for about 15 hours. About 1867 control cells and about 1426 bortezomib treated cells were screened.
FIGS. 22A-22D show another study using bortezomib. […] A clear response to the therapeutic was observed, with the drug EC50 expected to be between 2.5-10 nM.

[3] = tested on: MM.1S cells; test: LCI growth of MM.1S cells treated with bortezomib or dexamethasone
From the text: As an alternative, MM.1 cells may be used as model cell line for assay development, wherein MM.1S refers to a strain that is sensitive to a drug such as dexamethasone and MM.1R refers to a strain that is resistant to a drug such as dexamethasone. For these types of experiments, a 12 well plate may be seeded at about 1.5××10^5 cells per plate. The desired concentration of therapeutic(s) may be added to each of the six wells. Control wells may also be established using the same dilutions with DMSO as the test well containing drug. LCI imaging may begin immediately after drug addition, with images being taken every 10-15 minutes.
About 2.5××10^5 cells per well were placed on a poly-D-lysine 12 well plate, and incubated for one hour. About 200 nM dexamethasone, 10 nM bortezomib, or DMSO (in duplicate wells) were added to each well, and images were collected every 15 mins for up to 15 hours.

Structure (SMILES): Nc1cccc2c1C(=O)N(C1CCC(=O)NC1=O)C2=O (stereo not shown) [pomalidomide]
- overall result: response [1]: some response
- overall result: titration effect [1]: good titration effect

Structure (SMILES): CC(C)C[C@H](NC(=O)[C@H](Cc1ccccc1)NC(=O)c1cnccn1)B(O)O [bortezomib]
- difference between growth rates of treated and DMSO control cells ([2]; 2 nM bortezomib): −6.55%
- normalized growth rate ([2]; 2 nM bortezomib, imaged about 15 hours): 0.0172 h⁻¹
- difference between growth rates of treated and DMSO control cells ([2]; 10 nM bortezomib, first 7 hrs): −8.6%
- normalized growth rate ([2]; 10 nM bortezomib, imaged every 12 min for 7 hrs after drug addition): 0.0139 h⁻¹
- difference between growth rates of treated and DMSO control cells ([2]; 10 nM bortezomib, later imaging about 15 hours (total 24 hours)): −119.6%
- normalized growth rate ([2]; 10 nM bortezomib, same plate imaged further about 15 hours (total of 24 hours after drug addition)): 0.000443 h⁻¹
- growth trajectory compared to the control ([2]; 2.5 nM): did not show a difference in growth trajectory
- growth trajectory compared to the control ([2]; 10 nM): significant decline in growth
- pEC50 ([2]; Homo sapiens, NCI-H929, 96 well plate, 0-40 nM titration, expected value): 8.00 to 8.60
- pEC50 ([3]; Homo sapiens, MM1.S cells, bortezomib titration): 8.00 to 8.60
- sensitivity of cells to drug ([3]; MM.1S, 10 nM bortezomib): sensitive
- overall result: response [1]: good/great response
- overall result: titration effect [1]: good titration effect
- ranking among screened drugs [1]: most effective drugs

Structure (SMILES): C[C@@H]1C[C@H]2[C@@H]3CCC4=CC(=O)C=C[C@]4(C)[C@@]3(F)[C@@H](O)C[C@]2(C)[C@@]1(O)C(=O)CO [dexamethasone]
- reduction of MM.1S growth ([3]; about 200 nM dexamethasone, imaged up to 15 hours): 80.5%

Structure (SMILES): CC(C)C[C@H](NC(=O)[C@H](CCc1ccccc1)NC(=O)CN1CCOCC1)C(=O)N[C@@H](Cc1ccccc1)C(=O)N[C@@H](CC(C)C)C(=O)[C@@]1(C)CO1 [carfilzomib]
- overall result: response [1]: good/great response
- overall result: titration effect [1]: good titration effect
- ranking among screened drugs [1]: most effective drugs

Structure (SMILES): Nc1cccc2c1CN(C1CCC(=O)NC1=O)C2=O (stereo not shown) [lenalidomide]
- overall result: response [1]: no response
- overall result: titration effect [1]: no titration effect
